Laboratory results reported in patent publication US10821115B2, “Compounds that inhibit Mcl-1 protein” (priority 2017, dated 2020).
Read-outs that look alike come from different tables or passages of the source.

Experiments:
[1] = tested on: human multiple myeloma cell line, OPM-2; assay: Cell viability assay (OPM-2 10 FBS), CellTiter-Glo; format: cell-based
Method in brief: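 OPM-2 cells at 3000 cells/well in RPMI 1640 with 10% FBS were exposed to serially diluted compounds for 16 h at 37 °C, 5% CO2.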

[2] = biological target: recombinant human Mcl-1 (residues 171-327) / Bim interaction (Homo sapiens (Human), UniProt Q07820); assay: biochemical; format: binding; details: read-out: Mcl-1 HTRF IC50
[3] = Homo sapiens, OPM-2, 16 h, read-out: OPM-2 10% FBS IC50 IP, OPM-2 cells, 10% FBS, 16 h, CellTiter-Glo
[4] = TR-FRET, Mcl-1(171-327) / biotin-Bim (51-76)
[5] = Homo sapiens, OPM-2, 16 h, read-out: OPM-2 10% FBS IC50 IP, OPM-2 cells, 10% FBS, 16 h incubation
[6] = 0.1 nM Mcl-1(171-327), 0.05 nM biotin-Bim (51-76)
[7] = read-out: OPM-2 10% FBS IC50 IP, OPM-2 cells, 10% FBS, 16 h incubation
[8] = read-out: OPM-2 10% FBS IC50 IP, OPM-2 cells, 10% FBS, 16 h, CellTiter-Glo

Sequence of recombinant human Mcl-1 (residues 171-327) / Bim interaction (Q07820 171-327): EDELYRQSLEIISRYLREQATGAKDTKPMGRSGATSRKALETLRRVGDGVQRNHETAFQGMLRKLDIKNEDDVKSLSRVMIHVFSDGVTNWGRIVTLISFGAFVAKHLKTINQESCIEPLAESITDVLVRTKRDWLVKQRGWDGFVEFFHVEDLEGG

C[C@@H]1[C@@H](C)C/C=C/[C@](O)(c2cccc(F)n2)[C@@H]2CC[C@H]2CN2C[C@@]3(CCCc4cc(Cl)ccc43)COc3ccc(cc32)C(=O)NS1(=O)=O [Example 100331, (1S,3′R,6′R,7′R,8′E,11′S,12′R)-6-chloro-7′-(6-fluoro-2-pyridinyl)-7′-hydroxy-11′,12′-dimethyl-3,4-dihydro-2H,15′H-spiro[naphthalene-1,22′-[20]oxa[13]thia[1,14]diazatetracyclo [14.7.2.0~3,6~.0~19,24~]pentacosa[8,16,18,24]tetraen]-15′-one 13′,13′-dioxide]
IC50 [1, 3]: 8260 nM
IC50 [2, 4]: 0.192 nM

COCCN(C)S(=O)(=O)C[C@]1(O)CCC[C@H](C)[C@@H](C)S(=O)(=O)NC(=O)c2ccc3c(c2)N(C[C@@H]2CC[C@H]21)C[C@@]1(CCCc2cc(Cl)ccc21)CO3 [Example 100165, 1-((1S,3′R,6′R,7′S,11′S,12′R)-6-chloro-7′-hydroxy-11′,12′-dimethyl-13′,13′-dioxido-15′-oxo-3,4-dihydro-2H-spiro[naphthalene-1,22′-[20]oxa[13]thia[1,14]diazatetracyclo [14.7.2.0~3,6~.0~19,24~]pentacosa[16,18,24]trien]-7′-yl)-N-(2-methoxyethyl)-N-methylmethanesulfonamide]
IC50 [1, 3]: 579 nM
IC50 [2, 4]: 0.455 nM

COCC[C@@H]1[C@@H](C)C/C=C/[C@](CN2CCN(C)CC2)(OC)[C@@H]2CC[C@H]2CN2C[C@@]3(CCCc4cc(Cl)ccc43)COc3ccc(cc32)C(=O)NS1(=O)=O [Example 180, (1S,3′R,6′R,7′S,8′E,11′S,12′R)-6-chloro-7′-methoxy-12′-(2-methoxyethyl)-11′-methyl-7′-((4-methyl-1-piperazinyl)methyl)-3,4-dihydro-2H,15′H-spiro[naphthalene-1,22′-[20]oxa[13]thia[1,14]diazatetracyclo [14.7.2.0~3,6~.0~19,24~]pentacosa[8,16,18,24]tetraen]-15′-one 13′,13′-dioxide]
IC50 [1, 5]: 81 nM
IC50 [2, 6]: 0.106 nM

C[C@@H]1[C@@H](C)C/C=C/[C@@](O)(CN2CCN3CCCC[C@@H]3C2)[C@@H]2CC[C@H]2CN2C[C@@]3(CCCc4cc(Cl)ccc43)COc3ccc(cc32)C(=O)NS1(=O)=O (racemic) [Example 236]
IC50 [1, 5]: 87 nM
IC50 [2, 6]: 0.097 nM

COC[C@@H]1[C@@H](C)C/C=C/[C@](CN2CCN(C(C)C)CC2)(OC)[C@@H]2CC[C@H]2CN2C[C@@]3(CCCc4cc(Cl)ccc43)COc3ccc(cc32)C(=O)NS1(=O)=O [Example 173]
IC50 [1, 5]: 323 nM
IC50 [2, 6]: 0.173 nM

C[C@@H]1[C@@H](C)CCC[C@@](O)(CC#N)[C@@H]2CC[C@H]2CN2C[C@@]3(CCCc4cc(Cl)ccc43)COc3ccc(cc32)C(=O)NS1(=O)=O (single isomer, unassigned) [Example 100081]
IC50 [1, 3]: 5930 nM
IC50 [2, 4]: 7.33 nM

CO[C@@]1(CN2CCc3nocc3C2)/C=C/C[C@H](C)[C@@H](C)S(=O)(=O)NC(=O)c2ccc3c(c2)N(C[C@@H]2CC[C@H]21)C[C@@]1(CCCc2cc(Cl)ccc21)CO3 [Example 200]
IC50 [1, 5]: 583 nM
IC50 [2, 6]: 0.315 nM

CO[C@@]1(CN2CCC3(CC2)CN(C)C(=O)O3)/C=C/C[C@H](C)[C@@H](C)S(=O)(=O)NC(=O)c2ccc3c(c2)N(C[C@@H]2CC[C@H]21)C[C@@]1(CCCc2cc(Cl)ccc21)CO3 [Example 290, (1S,3′R,6′R,7′S,8′E,11′S,12′R)-6-chloro-7′-methoxy-11′,12′-dimethyl-7′-((3-methyl-2-oxo-1-oxa-3,8-diazaspiro[4.5]dec-8-yl)methyl)-3,4-dihydro-2H,15′H-spiro[naphthalene-1,22′-[20]oxa[13]thia[1,14]diazatetracyclo [14.7.2.0~3,6~.0~19,24~]pentacosa[8,16,18,24]tetraen]-15′-one 13′,13′-dioxide]
IC50 [1, 5]: 149 nM
IC50 [2, 6]: 0.215 nM

CO[C@@]1(CCN(C)C)/C=C/C[C@H](C)[C@@H](C)S(=O)(=O)NC(=O)c2ccc3c(c2)N(C[C@@H]2CC[C@H]21)C[C@@]1(CCCc2cc(Cl)ccc21)CO3 [Example 100393, (1S,3′R,6′R,7′S,8′E,11′S,12′R)-6-chloro-7′-(2-(dimethylamino)ethyl)-7′-methoxy-11′,12′-dimethyl-3,4-dihydro-2H,15′H-spiro[naphthalene-1,22′-[20]oxa[13]thia[1,14]diazatetracyclo [14.7.2.0~3,6~.0~19,24~]pentacosa[8,16,18,24]tetraen]-15′-one 13′,13′-dioxide]
IC50 [1, 3]: 211 nM
IC50 [2, 4]: 0.164 nM

COCCC#C[C@]1(OC)/C=C/C[C@H](C)[C@@H](C)S(=O)(=O)NC(=O)c2ccc3c(c2)N(C[C@@H]2CC[C@H]21)C[C@@]1(CCCc2cc(Cl)ccc21)CO3 [Example 100423, (1S,3′R,6′R,7′S,8′E,11′S,12′R)-6-chloro-7′-methoxy-7′-(4-methoxy-1-butyn-1-yl)-11′,12′-dimethyl-3,4-dihydro-2H,15′H-spiro[naphthalene-1,22′-[20]oxa[13]thia[1,14]diazatetracyclo [14.7.2.0~3,6~.0~19,24~]pentacosa[8,16,18,24]tetraen]-15′-one 13′,13′-dioxide]
IC50 [1, 3]: 99 nM
IC50 [2, 4]: 0.056 nM

CO[C@@]1(CN2CCN3CCC(F)(F)CC3C2)/C=C/C[C@H](C)[C@@H](C)S(=O)(=O)NC(=O)c2ccc3c(c2)N(C[C@@H]2CC[C@H]21)C[C@@]1(CCCc2cc(Cl)ccc21)CO3 (mixture of isomers) [Example 273]
IC50 [1, 7]: 501 nM
IC50 [2, 6]: 0.494 nM

C[C@@H]1[C@@H](C)C/C=C/[C@]2(CN3CCN(C)C[C@@H]3CO2)[C@@H]2CC[C@H]2CN2C[C@@]3(CCCc4cc(Cl)ccc43)COc3ccc(cc32)C(=O)NS1(=O)=O (single isomer, unassigned) [Example 133]
IC50 [1, 7]: 136 nM
IC50 [2, 6]: 0.189 nM

CO[C@@]1(CN2CCN3CCOC[C@@H]3C2)/C=C/C[C@H](C)[C@@H](Cc2ccccc2)S(=O)(=O)NC(=O)c2ccc3c(c2)N(C[C@@H]2CC[C@H]21)C[C@@]1(CCCc2cc(Cl)ccc21)CO3 (single isomer, unassigned) [Example 102]
IC50 [1, 7]: 416 nM
IC50 [2, 6]: 0.182 nM

CC#C[C@]1(O)CCC[C@H](C)[C@@H](C)S(=O)(=O)NC(=O)c2ccc3c(c2)N(C[C@@H]2CC[C@H]21)C[C@@]1(CCCc2cc(Cl)ccc21)CO3 [Example 100267, (1S,3′R,6′R,7′S,11′S,12′R)-6-chloro-7′-hydroxy-11′,12′-dimethyl-7′-(1-propyn-1-yl)-3,4-dihydro-2H,15′H-spiro[naphthalene-1,22′-[20]oxa[13]thia[1,14]diazatetracyclo [14.7.2.0~3,6~.0~19,24~]pentacosa[16,18,24]trien]-15′-one 13′,13′-dioxide]
IC50 [1, 8]: 274 nM
IC50 [2]: 0.166 nM

C[C@@H]1[C@@H](C)C/C=C/[C@@](O)(COS(C)(=O)=O)[C@@H]2CC[C@H]2CN2C[C@@]3(CCCc4cc(Cl)ccc43)COc3ccc(cc32)C(=O)NS1(=O)=O [Example 100335, ((1S,3′R,6′R,7′S,8′E,11′S,12′R)-6-chloro-7′-hydroxy-11′,12′-dimethyl-13′,13′-dioxido-15′-oxo-3,4-dihydro-2H-spiro[naphthalene-1,22′-[20]oxa[13]thia[1,14]diazatetracyclo [14.7.2.0~3,6~.0~19,24~]pentacosa[8,16,18,24]tetraen]-7′-yl)methyl methanesulfonate]
IC50 [1, 3]: 165 nM
IC50 [2, 4]: 0.319 nM

C[C@@H]1[C@@H](C)C/C=C/[C@@](O)(c2ncccc2F)[C@@H]2CC[C@H]2CN2C[C@@]3(CCCc4cc(Cl)ccc43)COc3ccc(cc32)C(=O)NS1(=O)=O (single isomer, unassigned) [Example 100390]
IC50 [1, 3]: 649 nM
IC50 [2, 4]: 0.186 nM

COCCCN1CCN(C[C@]2(OC)/C=C/C[C@H](C)[C@@H](C)S(=O)(=O)NC(=O)c3ccc4c(c3)N(C[C@@H]3CC[C@H]32)C[C@@]2(CCCc3cc(Cl)ccc32)CO4)CC1 [Example 302, (1S,3′R,6′R,7′S,8′E,11′S,12′R)-6-chloro-7′-methoxy-7′-((4-(3-methoxypropyl)-1-piperazinyl)methyl)-11′,12′-dimethyl-3,4-dihydro-2H,15′H-spiro[naphthalene-1,22′-[20]oxa[13]thia[1,14]diazatetracyclo [14.7.2.0~3,6~.0~19,24~]pentacosa[8,16,18,24]tetraen]-15′-one 13′,13′-dioxide]
IC50 [1, 5]: 84 nM
IC50 [2, 6]: 0.107 nM

COCCN(C)C(=O)C[C@]1(O)CCC[C@H](C)[C@@H](C)S(=O)(=O)NC(=O)c2ccc3c(c2)N(C[C@@H]2CC[C@H]21)C[C@@]1(CCCc2cc(Cl)ccc21)CO3 [Example 100140, 2-((1S,3′R,6′R,7′R,11′S,12′R)-6-chloro-7′-hydroxy-11′,12′-dimethyl-13′,13′-dioxido-15′-oxo-3,4-dihydro-2H-spiro[naphthalene-1,22′-[20]oxa[13]thia[1,14]diazatetracyclo [14.7.2.0~3,6~.0~19,24~]pentacosa[16,18,24]trien]-7′-yl)-N-(2-methoxyethyl)-N-methylacetamide]
IC50 [1, 8]: 299 nM
IC50 [2, 4]: 0.486 nM

COCC[C@@H]1[C@@H](C)C/C=C/[C@@](CN2CCN3CCCC[C@@H]3C2)(OC)[C@@H]2CC[C@H]2CN2C[C@@]3(CCCc4cc(Cl)ccc43)COc3ccc(cc32)C(=O)NS1(=O)=O [Example 181, (1S,3′R,6′R,7′R,8′E,11′S,12′R)-6-chloro-7′-methoxy-12′-(2-methoxyethyl)-11′-methyl-7′-((9aR)-octahydro-2H-pyrido[1,2-a]pyrazin-2-ylmethyl)-3,4-dihydro-2H,15′H-spiro[naphthalene-1,22′-[20]oxa[13]thia[1,14]diazatetracyclo [14.7.2.0~3,6~.0~19,24~]pentacosa[8,16,18,24]tetraen]-15′-one 13′,13′-dioxide]
IC50 [1, 5]: 74 nM
IC50 [2, 6]: 0.324 nM
